Assay results reported in the supplement of paper PMC10307832.

Legend:
Test in all cases: relative viability (nuclei count vs DMSO), 5 days (fraction); higher = more cells survive
AZ505 + Foretinib = compound: C1CCC(CC1)N(CCNCCC2=C3C(=C(C=C2)O)NC(=O)CO3)C(=O)CCNCCC4=CC(=C(C=C4)Cl)Cl [AZ505] + COc1cc2c(Oc3ccc(NC(=O)C4(C(=O)Nc5ccc(F)cc5)CC4)cc3F)ccnc2cc1OCCCN1CCOCC1 [Foretinib] (partner 0.25 µM)
How it was run: (§1)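 Each reported value is a median over duplicate plates. It expresses relative viability: treated-well nuclei count divided by vehicle-well nuclei count. Lung cancer cell lines in 1536-well plates were dosed by pin tool a day after seeding, alone with one drug or with a fixed anchor-drug dose plus five library-drug doses (not always all listed) in √10 steps, and nuclei were counted after 5 days.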

Dactolisib + OSI-027 = compound: Cn1c(=O)n(-c2ccc(C(C)(C)C#N)cc2)c2c3cc(-c4cnc5ccccc5c4)ccc3ncc21 [Dactolisib] + COc1cccc2cc(-c3nc([C@H]4CC[C@H](C(=O)O)CC4)n4ncnc(N)c34)[nH]c12 [OSI-027] (partner 0.5 µM)
How it was run: as §1

Dactolisib + Lapatinib = compound: Cn1c(=O)n(-c2ccc(C(C)(C)C#N)cc2)c2c3cc(-c4cnc5ccccc5c4)ccc3ncc21 [Dactolisib] + CS(=O)(=O)CCNCc1ccc(-c2ccc3ncnc(Nc4ccc(OCc5cccc(F)c5)c(Cl)c4)c3c2)o1 [Lapatinib] (partner 2 µM)
How it was run: as §1

Dactolisib + Pemetrexed = compound: Cn1c(=O)n(-c2ccc(C(C)(C)C#N)cc2)c2c3cc(-c4cnc5ccccc5c4)ccc3ncc21 [Dactolisib] + Nc1nc2[nH]cc(CCc3ccc(C(=O)N[C@@H](CCC(=O)O)C(=O)O)cc3)c2c(=O)[nH]1 [Pemetrexed] (partner 0.2 µM)
How it was run: as §1

Cell Line	relative viability (AZ505 + Foretinib; first compound 0.08 µM)	relative viability (AZ505 + Foretinib; first compound 0.253 µM)	relative viability (AZ505 + Foretinib; first compound 0.8 µM)	relative viability (AZ505 + Foretinib; first compound 2.53 µM)	relative viability (AZ505 + Foretinib; first compound 8 µM)	relative viability (Dactolisib + OSI-027; first compound 0.002 µM)	relative viability (Dactolisib + OSI-027; first compound 0.006325 µM)	relative viability (Dactolisib + OSI-027; first compound 0.02 µM)	relative viability (Dactolisib + OSI-027; first compound 0.06325 µM)	relative viability (Dactolisib + OSI-027; first compound 0.2 µM)	relative viability (Dactolisib + Lapatinib; first compound 0.002 µM)	relative viability (Dactolisib + Lapatinib; first compound 0.006325 µM)	relative viability (Dactolisib + Lapatinib; first compound 0.02 µM)	relative viability (Dactolisib + Lapatinib; first compound 0.06325 µM)	relative viability (Dactolisib + Lapatinib; first compound 0.2 µM)	relative viability (Dactolisib + Pemetrexed; first compound 0.002 µM)	relative viability (Dactolisib + Pemetrexed; first compound 0.006325 µM)	relative viability (Dactolisib + Pemetrexed; first compound 0.02 µM)	relative viability (Dactolisib + Pemetrexed; first compound 0.06325 µM)	relative viability (Dactolisib + Pemetrexed; first compound 0.2 µM)
NCI-H1666	0.946	1.01	0.917	0.9	0.95	1.04	0.895	0.864	0.755	0.687	0.723	0.559	0.691	0.318	0.391	0.849	0.892	0.858	0.736	0.802
NCI-H1734	0.785	0.811	0.754	0.751	0.829	0.561	0.594	0.562	0.313	0.247	1.02	1	0.817	0.342	0.378	0.335	0.436	0.415	0.36	0.317
NCI-H1755	0.817	0.913	0.893	0.93	0.9	0.821	0.772	0.8	0.683	0.542	1.07	1.03	1.06	0.852	0.73	0.414	0.389	0.455	0.393	0.412
NCI-H1793	0.627	0.735	0.758	–	0.572	0.317	0.26	0.257	0.212	0.157	0.631	0.409	0.325	0.195	0.242	0.751	0.409	0.266	0.214	0.168
NCI-H1915	1.06	1.11	1	0.977	1.1	0.723	0.704	0.716	0.535	0.418	0.986	0.956	0.97	0.964	0.693	0.355	0.508	0.455	0.425	0.42
NCI-H1944	0.875	0.903	0.938	0.806	0.761	0.467	0.418	0.418	0.281	0.195	0.808	0.814	0.758	0.412	0.378	0.461	0.564	0.585	0.286	0.244
NCI-H1975	0.889	0.928	0.902	0.946	0.96	0.676	0.676	0.591	0.297	0.244	0.796	0.767	0.643	0.327	0.284	0.299	0.32	0.297	0.244	0.181
NCI-H1993	0.764	0.702	0.731	0.846	0.963	0.596	0.496	0.615	0.469	0.589	0.784	0.714	0.843	0.601	0.651	0.554	0.496	0.49	0.345	0.421
